PubChem BioAssay AID1918998 (Molecular Pharmacology Branch, DTP, NCI, 2023)

System: 521955-158-R2-J5-PDC complex spheroid growth
Assay: Anticancer human tumor 521955-158-R2-J5-PDC patient-derived pancreatic carcinoma cell line growth inhibition [AhR]
Settings: for IC50: curve of first compound; for viability, T/C: stronger effect = lower value
Procedure, shortened: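 Complex tumor spheroids co-cultured with HUVEC and human MSC stroma; AhR antagonists tested in combination with standard-of-care and investigational agents. Top concentration at or near clinical Cmax (else 10 microM), half-log dilutions; growth expressed as percent test/control.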
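Wherever viability, T/C is given: spheroids mix tumor cells with HUVEC endothelium and human MSC stroma; luminescence taken as viability surrogate after a week of drug exposure.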

IC50 (second compound 0.1 µM): > 10 µM
IC50 (second compound 0.316 µM): > 10 µM
IC50 (second compound 1 µM): > 10 µM
IC50 (second compound 3.16 µM): > 10 µM
IC50 (second compound 10 µM): > 10 µM
Compound: CC(C)c1c(-c2ccccc2)nc2c(C#N)c[nH]n2c1=O + Cc1cncc(-c2nc(NCCc3c[nH]c4ccccc34)c3ncn(C(C)C)c3n2)c1
viability, T/C (second compound 0.1 µM, first compound 0.0316 µM): 96.9%
viability, T/C (second compound 0.1 µM, first compound 0.1 µM): 112%
viability, T/C (second compound 0.1 µM, first compound 0.316 µM): 114%
viability, T/C (second compound 0.1 µM, first compound 1 µM): 101%
viability, T/C (second compound 0.1 µM, first compound 3.16 µM): 98.7%
viability, T/C (second compound 0.1 µM, first compound 10 µM): 94.6%
viability, T/C (second compound 0.316 µM, first compound 0.0316 µM): 101%
viability, T/C (second compound 0.316 µM, first compound 0.1 µM): 137%
viability, T/C (second compound 0.316 µM, first compound 0.316 µM): 98.9%
viability, T/C (second compound 0.316 µM, first compound 1 µM): 106%
viability, T/C (second compound 0.316 µM, first compound 3.16 µM): 95.7%
viability, T/C (second compound 0.316 µM, first compound 10 µM): 94.6%
viability, T/C (second compound 1 µM, first compound 0.0316 µM): 133%
viability, T/C (second compound 1 µM, first compound 0.1 µM): 142%
viability, T/C (second compound 1 µM, first compound 0.316 µM): 127%
viability, T/C (second compound 1 µM, first compound 1 µM): 112%
viability, T/C (second compound 1 µM, first compound 3.16 µM): 106%
viability, T/C (second compound 1 µM, first compound 10 µM): 105%
viability, T/C (second compound 3.16 µM, first compound 0.0316 µM): 169%
viability, T/C (second compound 3.16 µM, first compound 0.1 µM): 151%
viability, T/C (second compound 3.16 µM, first compound 0.316 µM): 146%
viability, T/C (second compound 3.16 µM, first compound 1 µM): 134%
viability, T/C (second compound 3.16 µM, first compound 3.16 µM): 131%
viability, T/C (second compound 3.16 µM, first compound 10 µM): 136%
viability, T/C (second compound 10 µM, first compound 0.0316 µM): 134%
viability, T/C (second compound 10 µM, first compound 0.1 µM): 147%
viability, T/C (second compound 10 µM, first compound 0.316 µM): 153%
viability, T/C (second compound 10 µM, first compound 1 µM): 143%
viability, T/C (second compound 10 µM, first compound 3.16 µM): 118%
viability, T/C (second compound 10 µM, first compound 10 µM): 124%
